Read-outs that look alike come from different tables or passages of the source.
Columns and labels:
[1] = test system: Phosphorylation of ERK1/2 in AsPC-1 cells; assay: Phospho-ERK1/2 MSD Assay; format: cell-based
Experimental: Sixteen hours prior to compound treatment, AsPC-1 cells were seeded in 96-well cell culture plates at a density of 25,000 cells/well and incubated at 37° C., 5% CO2. A compound dose-response titration was diluted in growth media, added to appropriate wells of a cell culture plate, and then incubated at 37° C., 5% CO2 for 2 hours.

[2] = biological target: T1, His-tagged KRAS G12D protein (Homo sapiens, UniProt P01116, G12D)
[3] = biological target: T1, His-tagged KRAS G12D protein; assay: biochemical
[4] = read-out: 2 h p-ERK (AsPC-1 cells), IC50, AsPC-1 cells, 2 h compound treatment
[5] = Homo sapiens, ASPC1, 2 h, read-out: 2 h p-ERK (AsPC-1 cells), IC50, AsPC-1 cells, 2 h compound treatment

T1 sequence (P01116 1-188 isoform P01116-2 G12D): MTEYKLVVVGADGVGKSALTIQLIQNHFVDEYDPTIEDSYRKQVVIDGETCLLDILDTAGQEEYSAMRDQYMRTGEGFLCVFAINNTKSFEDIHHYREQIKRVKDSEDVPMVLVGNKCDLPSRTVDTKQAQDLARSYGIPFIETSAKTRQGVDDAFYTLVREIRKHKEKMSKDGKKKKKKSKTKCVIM

IC50 [1, 4] [µM]	IC50 [2] [µM]	IC50 [1, 5] [µM]	IC50 [3] [µM]	SMILES
0.259	0.003			CCc1c(F)ccc2cc(O)cc(-c3ncc4c(N5CCCC(C#N)CC5)nc(OC[C@@]56CCCN5C[C@H](F)C6)nc4c3F)c12 (single isomer, unassigned) [Example 55]
		1.56	0.033	CCc1c(F)ccc2cc(O)cc(-c3ncc4c(N5CC6CCC(C5)C6O)nc(OC[C@@]56CCCN5C[C@H](F)C6)nc4c3F)c12 (stereo partly drawn) [Example 97, 3-(7-(8-Ethyl-7-fluoro-3-hydroxynaphthalen-1-yl)-8-fluoro-2-(((2R,7aS)-2-fluorotetrahydro-1H-pyrrolizin-7a(5H)-yl)methoxy)pyrido[4,3-d]pyrimidin-4-yl)-3-azabicyclo[3.2.1]octan-8-ol]
		2.19	0.005	CCc1c(F)ccc2cc(O)cc(-c3ncc4c(N5CCCC(S(=O)(=O)NC)C5)nc(OC[C@@]56CCCN5C[C@H](F)C6)nc4c3F)c12 (stereo partly drawn) [Example 79, 1-(7-(8-Ethyl-7-fluoro-3-hydroxynaphthalen-1-yl)-8-fluoro-2-(((2R,7aS)-2-fluorotetrahydro-1H-pyrrolizin-7a(5H)-yl)methoxy)pyrido[4,3-d]pyrimidin-4-yl)-N-methylpiperidine-3-sulfonamide]
2.73			0.011	CCc1c(F)ccc2cc(O)cc(-c3ncc4c(N5CC(C)CC(C(N)=O)C5)nc(OC[C@@]56CCCN5C[C@H](F)C6)nc4c3F)c12 (single isomer, unassigned) [Example 163]

Continued, compound first:

SMILES	IC50 [1, 4] [µM]	IC50 [2] [µM]	IC50 [1, 5] [µM]	IC50 [3] [µM]
C#Cc1c(F)ccc2cc(O)cc(-c3ncc4c(N5CCCC(C)(O)C5)nc(OCC56CCCN5CC(F)C6)nc4c3F)c12 [Example 52, (R)-1-(7-(8-Ethynyl-7-fluoro-3-hydroxynaphthalen-1-yl)-8-fluoro-2-(((2R,7aS)-2-fluorotetrahydro-1H-pyrrolizin-7a(5H)-yl)methoxy)pyrido[4,3-d|pyrimidin-4-yl)-3-methylpiperidin-3-ol]			0.008	0.001
CCc1cccc2cc(O)cc(-c3ncc4c(N5CCC[C@@H](O)C5)nc(OC[C@@]56CCCN5C[C@H](F)C6)nc4c3F)c12 [Example 13, (R)-1-(7-(8-Ethyl-3-hydroxynaphthalen-1-yl)-8-fluoro-2-(((2R,7aS)-2-fluorotetrahydro-1H-pyrrolizin-7a(5H)-yl)methoxy)pyrido[4,3-d]pyrimidin-4-yl)piperidin-3-ol]			0.107	0.002
C#Cc1c(F)ccc2cc(O)cc(-c3ncc4c(N5CC6CC(O)C(C6)C5)nc(OC[C@@]56CCCN5C[C@H](F)C6)nc4c3F)c12 (single isomer, unassigned) [Example 28]	0.036			0.001
CCc1c(F)ccc2cc(O)cc(-c3ncc4c(N5CCC[C@H]5C(N)=O)nc(OC[C@@]56CCCN5C[C@H](F)C6)nc4c3F)c12 [Example 4, (S)-1-(7-(8-Ethyl-7-fluoro-3-hydroxynaphthalen-1-yl)-8-fluoro-2-(((2R,7aS)-2-fluorotetrahydro-1H-pyrrolizin-7a(5H)-yl)methoxy)pyrido[4,3-d]pyrimidin-4-yl)pyrrolidine-2-carboxamide]			> 10	0.021
C[C@@]1(O)CCCN(c2nc(OC[C@@]34CCCN3C[C@H](F)C4)nc3c(F)c(-c4cccc5ccc(F)c(F)c45)ncc23)C1 [Example 49, (R)-1-(7-(7,8-Difluoronaphthalen-1-yl)-8-fluoro-2-(((2R,7aS)-2-fluorotetrahydro-1H-pyrrolizin-7a(5H)-yl)methoxy)pyrido[4,3-d]pyrimidin-4-yl)-3-methylpiperidin-3-ol]			0.991	0.017

Reference: patent publication US20250034167A1, “HETEROCYCLIC COMPOUNDS AND METHODS OF USE” (AMGEN INC., priority 2021, published 2025)
